Laboratory results: US9828396B2, “Alkyne compounds for treatment of complement mediated disorders” (Achillion Pharmaceuticals, Inc., priority 2014, dated 2017)

Molecular target: Human factor D (Homo sapiens (Human), UniProt P00746)
Test: Human Factor D Assay
Assay type: biochemical
Details: Human factor D 80 nM, substrate Z-L-Lys-SBzl, assay of Example 12
Description: Example 12. Human Factor D Assay
Human factor D (purified from human serum, Complement Technology, Inc.) at 80 nM final concentration is incubated with test compound at various concentrations for 5 minutes at room temperature in 50 mM Tris, 1M NaCl, pH 7.5. A synthetic substrate Z-L-Lys-SBzl and DTNB (Ellman's reagent) are added to final concentrations of 100 μM each. The increase in color is recorded at OD405 nm in a microplate in kinetic mode over 30 minutes with 30 second time points in a spectrofluorimeter. IC50 values are calculated by non-linear regression from the percentage of inhibition of complement factor D activity as a function of test compound concentration.

Sequence of Human factor D (P00746 26-253): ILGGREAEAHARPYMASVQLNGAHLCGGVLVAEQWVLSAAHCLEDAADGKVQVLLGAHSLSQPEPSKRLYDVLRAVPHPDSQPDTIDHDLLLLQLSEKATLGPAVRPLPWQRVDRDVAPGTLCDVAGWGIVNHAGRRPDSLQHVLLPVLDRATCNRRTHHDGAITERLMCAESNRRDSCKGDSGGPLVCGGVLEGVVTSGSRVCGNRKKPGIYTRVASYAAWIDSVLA

Row | SMILES | IC50
1 | CC(=O)c1cn(CC(=O)N2[C@@H]3C[C@@H]3C[C@H]2C(=O)Nc2cccc(Br)n2)c2ccc(C#Cc3ncccn3)cc12 [Compound 21, (1R,3S,5R)-2-(2-(3-acetyl-5-(pyrimidin-2-ylethynyl)-1H-indol-1-yl)acetyl)-N-(6-bromopyridin-2-yl)-2-azabicyclo[3.1.0]hexane-3-carboxamide] | < 1 µM
2 | NC(=O)c1nn(CC(=O)N2C[C@H](F)C[C@H]2C(=O)Nc2cccc(-c3ccc(F)cc3Cl)c2F)c2ccc(C#Cc3ncccn3)cc12 [Compound 49, 1-(2-((2S,4R)-2-(2′-chloro-2,4′-difluorobiphenyl-3-ylcarbamoyl)-4-fluoropyrrolidin-1-yl)-2-oxoethyl)-5-(pyrimidin-2-ylethynyl)-1H-indazole-3-carboxamide] | < 1 µM
3 | NC(=O)c1nn(CC(=O)N2CCS[C@H]2C(=O)Nc2cccc(-c3ccccc3Cl)c2F)c2ccc(C#Cc3ncccn3)cc12 [Compound 66, (S)-3-(2-(3-carbamoyl-5-(pyrimidin-2-ylethynyl)-1H-indazol-1-yl)acetyl)-N-(2′-chloro-2-fluorobiphenyl-3-yl)thiazolidine-2-carboxamide] | < 1 µM
4 | NC(=O)c1nn(CC(=O)N2[C@@H]3C[C@@H]3C[C@H]2C(=O)Nc2cccc(Br)n2)c2ccc(C#Cc3ccc(F)cn3)cc12 [Compound 58, 1-(2-((1R,3S,5R)-3-(6-bromopyridin-2-ylcarbamoyl)-2-azabicyclo[3.1.0]hexan-2-yl)-2-oxoethyl)-5-((5-fluoropyridin-2-yl)ethynyl)-1H-indazole-3-carboxamide] | < 1 µM
5 | NC(=O)c1nn(CC(=O)N2[C@@H]3C[C@@H]3C[C@H]2C(=O)Nc2cccc(Br)n2)c2ccc(C#Cc3ncccn3)cc12 [Compound 41, 1-(2-((1R,3S,5R)-3-(6-bromopyridin-2-ylcarbamoyl)-2-azabicyclo[3.1.0]hexan-2-yl)-2-oxoethyl)-5-(pyrimidin-2-ylethynyl)-1H-indazole-3-carboxamide] | < 1 µM
6 | NC(=O)c1nn(CC(=O)N2C[C@H](F)C[C@H]2C(=O)Nc2ccc(C(F)(F)F)c(Cl)n2)c2ccc(C#Cc3ncc(F)cn3)cc12 [Compound 76, 1-(2-((2S,4R)-2-(6-chloro-5-(trifluoromethyl)pyridin-2-ylcarbamoyl)-4-fluoropyrrolidin-1-yl)-2-oxoethyl)-5-((5-fluoropyrimidin-2-yl)ethynyl)-1H-indazole-3-carboxamide] | < 1 µM
7 | NC(=O)c1nn(CC(=O)N2[C@@H]3C[C@@H]3C[C@H]2C(=O)Nc2cccc(C3CC3)n2)c2ccc(C#Cc3ncccn3)cc12 [Compound 54, 1-(2-((1R,3S,5R)-3-(6-cyclopropylpyridin-2-ylcarbamoyl)-2-azabicyclo[3.1.0]hexan-2-yl)-2-oxoethyl)-5-(pyrimidin-2-ylethynyl)-1H-indazole-3-carboxamide] | < 1 µM
8 | NC(=O)c1nn(CC(=O)N2[C@@H]3C[C@@H]3C[C@H]2C(=O)Nc2cccc(-c3ccccc3Cl)c2F)c2ccc(C#Cc3ncccn3)cc12 [Compound 27, 1-(2-((1R,3S,5R)-3-(2′ chloro-2-fluorobiphenyl-3-ylcarbamoyl)-2-azabicyclo[3.1.0]hexan-2-yl)-2-oxoethyl)-5-(pyrimidin-2-ylethynyl)-1H-indazole-3-carboxamide] | < 1 µM
9 | CC(=O)c1cn(CC(=O)N2C[C@H](F)C[C@H]2C(=O)NCc2cccc(Cl)c2F)c2ccc(C#Cc3ccccn3)cc12 [Compound 19, (2S,4R)-1-(2-(3-acetyl-5-(pyridin-2-ylethynyl)-1H-indol-1-yl)acetyl)-N-(3-chloro-2-fluorobenzyl)-4-fluoropyrrolidine-2-carboxamide] | < 1 µM
10 | NC(=O)c1nn(CC(=O)N2C[C@H](F)C[C@H]2C(=O)NCc2cccc(Cl)c2F)c2ccc(C#Cc3ncc(F)cn3)cc12 [Compound 40, 1-(2-((2S,4R)-2-(3-chloro-2-fluorobenzylcarbamoyl)-4-fluoropyrrolidin-1-yl)-2-oxoethyl)-5-((5-fluoropyrimidin-2-yl)ethynyl)-1H-indazole-3-carboxamide] | < 1 µM
11 | NC(=O)c1nn(CC(=O)N2[C@@H]3C[C@@H]3C[C@H]2C(=O)Nc2cccc(Cl)n2)c2ccc(C#Cc3ncccn3)cc12 [Compound 56, 1-(2-((1R,3S,5R)-3-(6-chloropyridin-2-ylcarbamoyl)-2-azabicyclo[3.1.0]hexan-2-yl)-2-oxoethyl)-5-(pyrimidin-2-ylethynyl)-1H-indazole-3-carboxamide] | < 1 µM
12 | CC(=O)c1cn(CC(=O)N2C[C@H](F)C[C@H]2C(=O)NCc2cccc(Cl)c2F)c2cc(C#Cc3c[nH]c(=O)nc3N)ccc12 [Compound 5, (2S,4R)-1-(2-(3-acetyl-6-((4-amino-2-oxo-1,2-dihydropyrimidin-5-yl)ethynyl)-1H-indol-1-yl)acetyl)-N-(3-chloro-2-fluorobenzyl)-4-fluoropyrrolidine-2-carboxamide] | < 1 µM
13 | NC(=O)c1nn(CC(=O)N2[C@@H]3C[C@@H]3C[C@H]2C(=O)Nc2ccn(CC(F)(F)F)n2)c2ccc(C#Cc3ncc(F)cn3)cc12 [Compound 72, 5-((5-fluoropyrimidin-2-yl)ethynyl)-1-(2-oxo-2-((1R,3S,5R)-3-(1-(2,2,2-trifluoroethyl)-1H-pyrazol-3-ylcarbamoyl)-2-azabicyclo[3.1.0]hexan-2-yl)ethyl)-1H-indazole-3-carboxamide] | < 1 µM
14 | NC(=O)c1nn(CC(=O)N2C[C@H](F)C[C@H]2C(=O)NCc2cccc(Cl)c2F)c2ccc(C#Cc3ccc(F)cn3)cc12 [Compound 35, 1-(2-((2S,4R)-2-(3-chloro-2-fluorobenzylcarbamoyl)-4-fluoropyrrolidin-1-yl)-2-oxoethyl)-5-((5-fluoropyridin-2-yl)ethynyl)-1H-indazole-3-carboxamide] | < 1 µM
15 | NC(=O)c1nn(CC(=O)N2[C@@H]3C[C@@H]3C[C@H]2C(=O)Nc2cccc(Cl)n2)c2ccc(C#Cc3cccnn3)cc12 [Compound 77, 1-(2-((1R,3S,5R)-3-(6-chloropyridin-2-ylcarbamoyl)-2-azabicyclo[3.1.0]hexan-2-yl)-2-oxoethyl)-5-(pyridazin-3-ylethynyl)-1H-indazole-3-carboxamide] | < 1 µM
16 | NC(=O)c1nn(CC(=O)N2[C@@H]3C[C@@H]3C[C@H]2C(=O)Nc2cccc(Br)n2)c2ccc(C#Cc3ncc(F)cn3)cc12 [Compound 43, 1-(2-((1R,3S,5R)-3-(6-bromopyridin-2-ylcarbamoyl)-2-azabicyclo[3.1.0]hexan-2-yl)-2-oxoethyl)-5-((5-fluoropyrimidin-2-yl)ethynyl)-1H-indazole-3-carboxamide] | < 1 µM
17 | NC(=O)c1nn(CC(=O)N2C[C@H](F)C[C@H]2C(=O)NCc2cccc(Cl)c2F)c2cnc(C#Cc3ncccn3)cc12 [Compound 32, 1-(2-((2S,4R)-2-(3-chloro-2-fluorobenzylcarbamoyl)-4-fluoropyrrolidin-1-yl)-2-oxoethyl)-5-(pyrimidin-2-ylethynyl)-1H-pyrazolo[3,4-c]pyridine-3-carboxamide] | < 1 µM
18 | NC(=O)c1nn(CC(=O)N2C[C@H](F)C[C@H]2C(=O)Nc2cncc(Br)n2)c2ccc(C#Cc3cnccn3)cc12 [Compound 89, 1-(2-((2S,4R)-2-(6-bromopyrazin-2-ylcarbamoyl)-4-fluoropyrrolidin-1-yl)-2-oxoethyl)-5-(pyrazin-2-ylethynyl)-1H-indazole-3-carboxamide] | < 1 µM
19 | NC(=O)c1nn(CC(=O)N2[C@@H]3C[C@@H]3C[C@H]2C(=O)Nc2cccc(Br)n2)c2ccc(C#Cc3ncc(C(F)(F)F)cn3)cc12 [Compound 61, 1-(2-((1R,3S,5R)-3-(6-bromopyridin-2-ylcarbamoyl)-2-azabicyclo[3.1.0]hexan-2-yl)-2-oxoethyl)-5-((5-(trifluoromethyl)pyrimidin-2-yl)ethynyl)-1H-indazole-3-carboxamide] | < 1 µM
20 | CC1(C)CCCC(NC(=O)[C@@H]2C[C@@H](F)CN2C(=O)Cn2nc(C(N)=O)c3cc(C#Cc4ncccn4)ccc32)C1 (stereo partly drawn) [Compound 44, 1-(2-((2S,4R)-2-(3,3-dimethylcyclohexylcarbamoyl)-4-fluoropyrrolidin-1-yl)-2-oxoethyl)-5-(pyrimidin-2-ylethynyl)-1H-indazole-3-carboxamide] | < 1 µM
21 | NC(=O)c1nn(CC(=O)N2C[C@H](F)C[C@H]2C(=O)NCc2cccc(Cl)c2F)c2ccc(C#Cc3cccc(N)n3)cc12 [Compound 36, 5-((6-aminopyridin-2-yl)ethynyl)-1-(2-((2S,4R)-2-(3-chloro-2-fluorobenzylcarbamoyl)-4-fluoropyrrolidin-1-yl)-2-oxoethyl)-1H-indazole-3-carboxamide] | < 1 µM
22 | NC(=O)c1nn(CC(=O)N2CC[C@@H](O)[C@H]2C(=O)NCc2cccc(Cl)c2F)c2ccc(C#Cc3ncccn3)cc12 [Compound 52, 1-(2-((2S,3R)-2-(3-chloro-2-fluorobenzylcarbamoyl)-3-hydroxypyrrolidin-1-yl)-2-oxoethyl)-5-(pyrimidin-2-ylethynyl)-1H-indazole-3-carboxamide] | < 1 µM
23 | N#Cc1ccc(C#Cc2ccc3c(c2)c(C(N)=O)nn3CC(=O)N2[C@@H]3C[C@@H]3C[C@H]2C(=O)Nc2cccc(Br)n2)nc1 [Compound 60, 1-(2-((1R,3S,5R)-3-(6-bromopyridin-2-ylcarbamoyl)-2-azabicyclo[3.1.0]hexan-2-yl)-2-oxoethyl)-5-((5-cyanopyridin-2-yl)ethynyl)-1H-indazole-3-carboxamide] | < 1 µM
24 | NC(=O)c1nn(CC(=O)N2C[C@H](F)C[C@H]2C(=O)NCc2cccc(Cl)c2F)c2ccc(C#Cc3ncccn3)cc12 [Compound 20, 1-(2-((2S,4R)-2-(3-chloro-2-fluorobenzylcarbamoyl)-4-fluoropyrrolidin-1-yl)-2-oxoethyl)-5-(pyrimidin-2-ylethynyl)-1H-indazole-3-carboxamide] | < 1 µM
